Legend:
Experiment in all cases: Eurofins kinase selectivity profile against 380 other human recombinant kinases (Table S2)
Assay type in all cases: biochemical
[1] = molecular target: T1, 380 human recombinant protein kinases (Homo sapiens, UniProt O75914); conditions: PAK3(h), read-out: Inhibition rate
T1 construct: purchased Eurofins (Celle Lévescault)
Outline: (§1)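 Commercial selectivity screen of the test compound against a panel of 380 human recombinant protein kinases, run by an outside contractor at several compound concentrations to check whether its potency was specific for MK2.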

[2] = molecular target: T2, 380 human recombinant protein kinases (Homo sapiens, UniProt P05771); conditions: PKCβI(h), read-out: Inhibition rate
T2 construct: purchased Eurofins (Celle Lévescault)
T2 sequence (P05771 whole entry): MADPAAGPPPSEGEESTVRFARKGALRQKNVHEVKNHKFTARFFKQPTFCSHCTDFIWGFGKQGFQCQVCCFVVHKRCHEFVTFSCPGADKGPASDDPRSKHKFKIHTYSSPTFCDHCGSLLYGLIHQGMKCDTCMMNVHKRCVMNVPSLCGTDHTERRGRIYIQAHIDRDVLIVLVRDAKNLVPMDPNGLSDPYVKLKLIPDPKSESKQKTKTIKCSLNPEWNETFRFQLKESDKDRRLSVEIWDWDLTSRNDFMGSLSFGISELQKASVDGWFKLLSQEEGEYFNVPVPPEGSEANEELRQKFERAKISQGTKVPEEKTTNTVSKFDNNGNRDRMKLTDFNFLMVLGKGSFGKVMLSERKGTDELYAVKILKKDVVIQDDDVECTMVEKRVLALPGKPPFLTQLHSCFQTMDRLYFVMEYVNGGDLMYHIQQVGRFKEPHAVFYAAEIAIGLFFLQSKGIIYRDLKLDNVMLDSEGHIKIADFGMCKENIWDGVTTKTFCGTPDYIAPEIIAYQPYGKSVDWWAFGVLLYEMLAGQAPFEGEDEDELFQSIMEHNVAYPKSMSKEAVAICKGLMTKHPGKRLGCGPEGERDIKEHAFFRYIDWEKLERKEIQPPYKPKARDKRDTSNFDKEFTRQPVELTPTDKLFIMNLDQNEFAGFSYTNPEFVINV
Outline: as §1

[3] = molecular target: T3, 380 human recombinant protein kinases (Homo sapiens, UniProt P06241); conditions: Fyn(h), read-out: Inhibition rate
T3 construct: purchased Eurofins (Celle Lévescault)
Outline: as §1

[4] = molecular target: T4, 380 human recombinant protein kinases (Homo sapiens, UniProt P49841); conditions: GSK3β(h), read-out: Inhibition rate
T4 construct: purchased Eurofins (Celle Lévescault)
T4 sequence (P49841 whole entry): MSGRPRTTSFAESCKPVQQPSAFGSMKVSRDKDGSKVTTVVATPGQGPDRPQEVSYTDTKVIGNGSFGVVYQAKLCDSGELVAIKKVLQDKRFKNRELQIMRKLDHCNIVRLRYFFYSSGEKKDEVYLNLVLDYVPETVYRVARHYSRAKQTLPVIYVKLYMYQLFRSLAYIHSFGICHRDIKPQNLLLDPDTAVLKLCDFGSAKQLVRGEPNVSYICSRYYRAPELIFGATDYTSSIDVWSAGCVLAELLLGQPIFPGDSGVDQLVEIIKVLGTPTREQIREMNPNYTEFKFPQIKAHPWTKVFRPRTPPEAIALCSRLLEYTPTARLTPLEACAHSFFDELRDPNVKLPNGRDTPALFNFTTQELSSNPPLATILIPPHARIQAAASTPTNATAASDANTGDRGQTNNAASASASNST
Outline: as §1

[5] = molecular target: T5, 380 human recombinant protein kinases (Homo sapiens, UniProt P53667); conditions: LIMK1(h), read-out: Inhibition rate
T5 construct: purchased Eurofins (Celle Lévescault)
T5 sequence (P53667 whole entry): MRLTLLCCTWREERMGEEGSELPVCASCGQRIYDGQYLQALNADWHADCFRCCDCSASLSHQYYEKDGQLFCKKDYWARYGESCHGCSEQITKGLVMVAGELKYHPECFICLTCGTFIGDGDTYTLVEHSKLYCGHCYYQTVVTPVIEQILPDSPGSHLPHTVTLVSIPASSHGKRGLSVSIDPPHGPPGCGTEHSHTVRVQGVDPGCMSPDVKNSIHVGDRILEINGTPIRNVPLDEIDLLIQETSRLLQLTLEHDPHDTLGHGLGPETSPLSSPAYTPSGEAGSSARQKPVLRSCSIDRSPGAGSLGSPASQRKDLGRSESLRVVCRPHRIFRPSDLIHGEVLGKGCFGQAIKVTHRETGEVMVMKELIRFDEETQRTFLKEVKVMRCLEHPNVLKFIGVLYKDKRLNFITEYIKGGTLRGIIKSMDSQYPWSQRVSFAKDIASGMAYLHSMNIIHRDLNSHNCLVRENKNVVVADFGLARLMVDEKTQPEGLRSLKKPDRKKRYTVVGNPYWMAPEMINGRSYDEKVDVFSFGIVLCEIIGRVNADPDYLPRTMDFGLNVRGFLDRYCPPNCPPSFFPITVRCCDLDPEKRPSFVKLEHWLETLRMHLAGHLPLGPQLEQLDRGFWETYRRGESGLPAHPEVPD
Outline: as §1

[6] = molecular target: T6, 380 human recombinant protein kinases (Homo sapiens, UniProt P53671); conditions: LIMK2(h), read-out: Inhibition rate
T6 construct: purchased Eurofins (Celle Lévescault)
T6 sequence (P53671 whole entry): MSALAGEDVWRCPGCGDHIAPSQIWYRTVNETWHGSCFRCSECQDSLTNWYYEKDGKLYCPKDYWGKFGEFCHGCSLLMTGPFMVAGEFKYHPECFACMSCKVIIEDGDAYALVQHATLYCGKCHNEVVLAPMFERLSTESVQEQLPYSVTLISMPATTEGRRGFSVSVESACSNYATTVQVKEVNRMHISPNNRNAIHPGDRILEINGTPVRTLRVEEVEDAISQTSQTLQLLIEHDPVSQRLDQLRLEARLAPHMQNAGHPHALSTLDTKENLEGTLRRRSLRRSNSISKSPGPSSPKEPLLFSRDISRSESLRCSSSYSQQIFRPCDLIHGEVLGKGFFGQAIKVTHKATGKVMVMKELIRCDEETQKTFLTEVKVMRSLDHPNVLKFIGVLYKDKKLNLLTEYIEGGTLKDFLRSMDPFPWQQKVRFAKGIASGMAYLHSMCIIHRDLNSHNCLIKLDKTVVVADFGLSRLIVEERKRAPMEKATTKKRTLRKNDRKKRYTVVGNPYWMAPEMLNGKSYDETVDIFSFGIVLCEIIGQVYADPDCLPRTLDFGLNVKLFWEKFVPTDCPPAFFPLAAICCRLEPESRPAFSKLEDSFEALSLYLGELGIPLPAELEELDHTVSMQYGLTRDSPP
Outline: as §1

[7] = molecular target: T7, 380 human recombinant protein kinases (Homo sapiens, UniProt Q13554); conditions: CaMKIIβ(h), read-out: Inhibition rate
T7 construct: purchased Eurofins (Celle Lévescault)
T7 sequence (Q13554 whole entry): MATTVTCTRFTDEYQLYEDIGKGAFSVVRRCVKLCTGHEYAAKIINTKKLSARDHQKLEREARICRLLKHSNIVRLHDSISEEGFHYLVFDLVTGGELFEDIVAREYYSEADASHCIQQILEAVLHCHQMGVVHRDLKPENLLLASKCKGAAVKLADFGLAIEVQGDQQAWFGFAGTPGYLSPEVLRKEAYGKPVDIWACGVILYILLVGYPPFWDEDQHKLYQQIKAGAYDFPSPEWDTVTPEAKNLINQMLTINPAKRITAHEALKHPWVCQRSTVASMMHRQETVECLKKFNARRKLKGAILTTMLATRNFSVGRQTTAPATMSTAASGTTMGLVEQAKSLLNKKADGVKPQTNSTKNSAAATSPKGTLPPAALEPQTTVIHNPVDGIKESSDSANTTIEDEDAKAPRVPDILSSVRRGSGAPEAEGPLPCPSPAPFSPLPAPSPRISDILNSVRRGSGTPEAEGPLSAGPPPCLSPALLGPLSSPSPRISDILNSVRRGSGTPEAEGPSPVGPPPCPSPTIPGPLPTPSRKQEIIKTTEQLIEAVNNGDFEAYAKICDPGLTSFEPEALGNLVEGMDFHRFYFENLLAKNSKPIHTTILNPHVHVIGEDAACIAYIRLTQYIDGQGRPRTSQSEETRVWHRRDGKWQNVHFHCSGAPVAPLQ
Outline: as §1

[8] = molecular target: T8, 380 human recombinant protein kinases (Homo sapiens, UniProt Q13873); conditions: BMPR2(h), read-out: Inhibition rate
T8 construct: purchased Eurofins (Celle Lévescault)
T8 sequence (Q13873 27-1038): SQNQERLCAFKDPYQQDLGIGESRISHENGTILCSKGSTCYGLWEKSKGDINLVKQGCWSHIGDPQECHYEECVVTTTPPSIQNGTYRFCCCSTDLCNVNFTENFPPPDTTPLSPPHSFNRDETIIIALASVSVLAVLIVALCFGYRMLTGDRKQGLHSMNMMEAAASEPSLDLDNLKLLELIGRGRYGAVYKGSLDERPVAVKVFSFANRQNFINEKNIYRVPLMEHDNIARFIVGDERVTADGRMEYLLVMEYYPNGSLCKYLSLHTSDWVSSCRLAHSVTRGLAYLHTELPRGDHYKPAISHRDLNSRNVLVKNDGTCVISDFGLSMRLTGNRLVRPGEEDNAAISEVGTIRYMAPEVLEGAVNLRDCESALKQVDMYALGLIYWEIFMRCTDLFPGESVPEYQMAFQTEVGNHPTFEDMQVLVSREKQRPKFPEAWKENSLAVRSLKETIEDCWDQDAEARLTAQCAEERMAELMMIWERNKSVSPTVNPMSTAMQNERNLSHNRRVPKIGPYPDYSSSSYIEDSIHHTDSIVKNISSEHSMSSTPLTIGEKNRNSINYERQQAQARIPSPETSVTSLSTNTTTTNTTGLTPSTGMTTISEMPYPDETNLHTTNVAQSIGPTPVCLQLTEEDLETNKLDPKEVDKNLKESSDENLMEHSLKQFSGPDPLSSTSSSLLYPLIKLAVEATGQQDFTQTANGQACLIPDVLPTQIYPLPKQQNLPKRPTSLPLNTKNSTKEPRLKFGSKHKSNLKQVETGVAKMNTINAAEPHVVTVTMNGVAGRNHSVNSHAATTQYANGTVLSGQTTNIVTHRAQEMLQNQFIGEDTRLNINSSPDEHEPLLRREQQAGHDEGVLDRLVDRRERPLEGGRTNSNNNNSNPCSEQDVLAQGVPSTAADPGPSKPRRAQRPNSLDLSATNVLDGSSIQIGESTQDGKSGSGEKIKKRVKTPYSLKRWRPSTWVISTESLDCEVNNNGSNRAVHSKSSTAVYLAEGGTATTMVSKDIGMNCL
Outline: as §1

[9] = molecular target: T9, 380 human recombinant protein kinases (Homo sapiens, UniProt Q5TCY1); conditions: TTBK1(h), read-out: Inhibition rate (%)
T9 construct: purchased Eurofins (Celle Lévescault)
T9 sequence (Q5TCY1 whole entry): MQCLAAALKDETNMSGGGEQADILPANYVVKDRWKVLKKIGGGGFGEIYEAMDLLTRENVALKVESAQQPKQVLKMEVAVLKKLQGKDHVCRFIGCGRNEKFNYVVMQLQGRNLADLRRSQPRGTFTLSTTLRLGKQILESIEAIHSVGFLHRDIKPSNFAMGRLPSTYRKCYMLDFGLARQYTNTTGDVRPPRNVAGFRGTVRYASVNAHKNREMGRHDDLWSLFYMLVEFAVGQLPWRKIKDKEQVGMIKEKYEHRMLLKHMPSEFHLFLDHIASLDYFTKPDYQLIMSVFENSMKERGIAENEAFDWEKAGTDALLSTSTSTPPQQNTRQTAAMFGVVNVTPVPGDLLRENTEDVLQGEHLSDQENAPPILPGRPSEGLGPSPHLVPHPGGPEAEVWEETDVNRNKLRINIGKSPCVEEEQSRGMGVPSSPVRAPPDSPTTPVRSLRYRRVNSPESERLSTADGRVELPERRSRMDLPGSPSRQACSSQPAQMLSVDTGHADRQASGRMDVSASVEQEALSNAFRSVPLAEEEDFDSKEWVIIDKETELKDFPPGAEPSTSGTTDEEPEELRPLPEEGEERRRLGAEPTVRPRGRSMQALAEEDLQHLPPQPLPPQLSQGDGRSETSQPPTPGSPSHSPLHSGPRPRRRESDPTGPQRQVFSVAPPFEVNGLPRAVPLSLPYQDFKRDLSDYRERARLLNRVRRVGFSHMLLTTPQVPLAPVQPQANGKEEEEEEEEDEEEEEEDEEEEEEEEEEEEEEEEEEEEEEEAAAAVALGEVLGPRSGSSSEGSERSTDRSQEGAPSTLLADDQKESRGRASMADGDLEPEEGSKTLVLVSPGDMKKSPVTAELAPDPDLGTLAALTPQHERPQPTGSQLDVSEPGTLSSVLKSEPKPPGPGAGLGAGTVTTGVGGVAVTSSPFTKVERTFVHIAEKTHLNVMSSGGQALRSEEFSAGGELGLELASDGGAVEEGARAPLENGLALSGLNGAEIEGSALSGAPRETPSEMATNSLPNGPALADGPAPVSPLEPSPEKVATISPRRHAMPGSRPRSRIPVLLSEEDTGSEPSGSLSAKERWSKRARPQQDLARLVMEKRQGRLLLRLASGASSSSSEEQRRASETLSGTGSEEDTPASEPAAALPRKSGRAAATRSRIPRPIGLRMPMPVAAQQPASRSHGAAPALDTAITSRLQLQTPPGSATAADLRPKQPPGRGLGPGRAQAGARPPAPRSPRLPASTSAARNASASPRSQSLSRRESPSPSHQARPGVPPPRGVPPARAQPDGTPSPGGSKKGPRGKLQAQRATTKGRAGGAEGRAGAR
Outline: as §1

[10] = molecular target: T10, 380 human recombinant protein kinases (Homo sapiens, UniProt Q9H4B4); conditions: Plk3(h), read-out: Inhibition rate
T10 construct: purchased Eurofins (Celle Lévescault)
Outline: as §1

[11] = molecular target: T11, 380 human recombinant protein kinases (Homo sapiens, UniProt Q9NWZ3); conditions: IRAK4(h), read-out: Inhibition rate
T11 construct: purchased Eurofins (Celle Lévescault)
T11 sequence (Q9NWZ3 1-460): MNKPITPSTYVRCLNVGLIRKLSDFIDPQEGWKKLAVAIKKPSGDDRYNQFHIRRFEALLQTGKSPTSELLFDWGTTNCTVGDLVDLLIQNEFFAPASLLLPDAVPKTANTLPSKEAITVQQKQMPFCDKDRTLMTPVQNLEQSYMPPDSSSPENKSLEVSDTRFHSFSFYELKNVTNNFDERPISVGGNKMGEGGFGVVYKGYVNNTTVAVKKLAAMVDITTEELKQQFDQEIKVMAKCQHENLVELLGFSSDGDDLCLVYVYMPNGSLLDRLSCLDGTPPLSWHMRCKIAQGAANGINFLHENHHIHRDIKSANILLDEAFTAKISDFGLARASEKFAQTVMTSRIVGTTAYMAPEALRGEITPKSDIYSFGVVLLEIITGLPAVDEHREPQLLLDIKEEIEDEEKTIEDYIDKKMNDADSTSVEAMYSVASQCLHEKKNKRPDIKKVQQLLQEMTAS
Outline: as §1

T1 sequence (O75914 whole entry): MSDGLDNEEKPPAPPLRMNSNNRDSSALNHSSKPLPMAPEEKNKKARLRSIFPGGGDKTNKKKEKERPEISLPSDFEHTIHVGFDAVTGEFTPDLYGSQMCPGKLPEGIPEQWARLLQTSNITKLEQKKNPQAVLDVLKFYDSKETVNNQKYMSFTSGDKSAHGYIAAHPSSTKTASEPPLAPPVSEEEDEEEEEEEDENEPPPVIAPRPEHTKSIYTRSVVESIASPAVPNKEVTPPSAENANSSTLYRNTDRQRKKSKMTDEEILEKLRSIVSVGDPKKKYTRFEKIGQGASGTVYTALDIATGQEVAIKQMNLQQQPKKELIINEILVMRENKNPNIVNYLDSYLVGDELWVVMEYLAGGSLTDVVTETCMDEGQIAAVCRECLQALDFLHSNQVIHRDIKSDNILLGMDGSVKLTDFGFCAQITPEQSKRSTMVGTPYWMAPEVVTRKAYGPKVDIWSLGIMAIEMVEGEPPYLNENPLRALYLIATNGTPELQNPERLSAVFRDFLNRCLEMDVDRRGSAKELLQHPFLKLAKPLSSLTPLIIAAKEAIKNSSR

With `C=CC(=O)Nc1cc(-c2cc(-c3cc4c([nH]3)CCNC4=O)ccn2)ccc1OC(F)(F)F` [compound 11] the inhibition at 0.01 µM ([1]; 10 nM) was -4%, the inhibition at 0.1 µM ([1]; 100 nM) was 0% and the inhibition at 1 µM ([1]; 1000 nM) was -3%. For the same compound, the inhibition at 0.01 µM ([2]; 10 nM) was 3%, the inhibition at 0.1 µM ([2]; 100 nM) was 1% and the inhibition at 1 µM ([2]; 1000 nM) was -13%. It also gave an inhibition at 0.01 µM ([3]; 10 nM) of 0%, an inhibition at 0.1 µM ([3]; 100 nM) of 0% and an inhibition at 1 µM ([3]; 1000 nM) of 3%. The inhibition at 0.01 µM ([4]; 10 nM) was -10%, the inhibition at 0.1 µM ([4]; 100 nM) was -7% and the inhibition at 1 µM ([4]; 1000 nM) was 5%. For the same compound, the inhibition at 0.01 µM ([5]; 10 nM) was -5%, the inhibition at 0.1 µM ([5]; 100 nM) was -2% and the inhibition at 1 µM ([5]; 1000 nM) was -2%. The inhibition at 0.01 µM ([6]; 10 nM) was -9%, the inhibition at 0.1 µM ([6]; 100 nM) was -8% and the inhibition at 1 µM ([6]; 1000 nM) was -1%. The inhibition at 0.01 µM ([7]; 10 nM) was -1%, the inhibition at 0.1 µM ([7]; 100 nM) was 9% and the inhibition at 1 µM ([7]; 1000 nM) was 14%. It also gave an inhibition at 0.01 µM ([8]; 10 nM) of 8%, an inhibition at 0.1 µM ([8]; 100 nM) of 13% and an inhibition at 1 µM ([8]; 1000 nM) of 28%. The inhibition at 0.01 µM ([9]; 10 nM) was -2%, the inhibition at 0.1 µM ([9]; 100 nM) was -5% and the inhibition at 1 µM ([9]; 1000 nM) was 3%. It also gave an inhibition at 0.01 µM ([10]; 10 nM) of 10%, an inhibition at 0.1 µM ([10]; 100 nM) of 6% and an inhibition at 1 µM ([10]; 1000 nM) of 15%. For the same compound, the inhibition at 0.01 µM ([11]; 10 nM) was -4%, the inhibition at 0.1 µM ([11]; 100 nM) was -9% and the inhibition at 1 µM ([11]; 1000 nM) was -2%.
